{"source": "patent US20070173438A1", "about": "“[PSI[CH2NH]PG4] glycopeptide antibiotic analogs” (The Scripps Research Institute, priority 2006, published 2007)", "key": {"[1]": {"system": "VanA Enterococcus faecalis (BM4166)", "assay": "antimicrobial assay against VanA resistant organism", "format": "cell-based", "conditions": "for potency weaker than vancomycin and its aglycon against sensitive E. faecalis: MIC against VanA BM4166 compared with vancomycin/aglycon MIC against sensitive E. faecalis", "description": "(§1) It is the most difficult of the resistant organisms to treat (vs VanB) and characteristic of such organisms, they grow unchallenged enlisting a D-Ala-D-Ala peptidoglycan cell wall precursor, but switch to D-Ala-D-Lac upon glycopeptide treatment."}, "[2]": {"system": "N,N′-Ac2-Lys-D-Ala-D-Ala (2)", "assay": "UV difference titration binding constant with model ligand N,N′-Ac2-Lys-D-Ala-D-Ala", "conditions": "for Ka, affinity for D-Ala-D-Ala (Ac2-L-Lys-D-Ala-D-Ala, 2): association constant, 0.02 M sodium citrate buffer, Scatchard plot", "description": "(§2) Binding Constant Determination. The binding constants for compounds 5 and 41 for association with the model ligands N,N′-Ac2-Lys-D-Ala-D-Ala and N,N′-Ac2-Lys-D-Ala-D-Lac were determined according to literature (Nieto, M.; Perkins, H. R. Biochem. J. 1971, 124, 845; Nieto, M.; Perkins, H. R. Biochem. J. 1971, 124, 773; Nieto, M.; Perkins, H. R. Biochem. J. 1971, 124, 789) protocols. UV difference experiments were carried out on a CARY 3E UV-Vis spectrometer. UV scans were run with a baseline correction that consisted of 0.02 M sodium citrate buffer and covered a range from 200 to 345 nm. A solution of 5 or 41 (1.1×10^−4 M in 0.02 M sodium citrate buffer) was placed into a quartz UV cuvette (1.0 cm path length) and the UV spectrum recorded versus a reference cell containing 0.02 M sodium citrate buffer. UV spectra were recorded after each addition of a solution of N,N′-Ac2-Lys-D-Ala-D-Ala or N,N′-Ac2-Lys-D-Ala-D-Lac in 0.02 M sodium citrate buffer to each cell from 0.1 to 140.0 equivalents. The absorbance value at the λmax was recorded and the running change in absorbance, ΔAx equiv (Ainitial−Ax equiv, ) measured. The number of ligand equivalents was plotted versus ΔA to afford the ligand binding titration curve. The break point of this curve is the saturation point of the system and its xy coordinates determined by establishing the intersection of the linear fits of the pre and postsaturation curves. ΔAsaturation was calculated and employed to determine the concentration of free ligand in solution at each titration. ΔA was plotted versus ΔA/free ligand concentration to give a Scatchard plot from which the binding constants were determined."}, "[3]": {"system": "N,N′-Ac2-Lys-D-Ala-D-Lac (4)", "assay": "UV difference titration binding constant with model ligand N,N′-Ac2-Lys-D-Ala-D-Lac", "conditions": "for Ka, affinity for D-Ala-D-Lac (Ac2-L-Lys-D-Ala-D-Lac, 4): association constant, 0.02 M sodium citrate buffer, Scatchard plot", "description": "as §2"}, "sensitive E. faecalis": {"system": "sensitive E. faecalis", "assay": "antimicrobial activity against sensitive E. faecalis", "format": "cell-based", "conditions": "Enterococcus faecalis", "description": "as §1"}, "[4]": {"system": "enterococci resistant to vancomycin, VanA and VanB", "conditions": "literature; cited from earlier work"}, "[5]": {"system": "N,N′-Ac2-Lys-D-Ala-D-Lac (4)", "conditions": "cited from earlier work"}, "[6]": {"system": "3 (methylene analogue of Ac2-L-Lys-D-Ala-D-Ala)", "conditions": "cited from earlier work"}}, "note": "Where “and” joins values, the source holds several entries; their conditions need not be identical. Identical values can stand only once."}
{"smiles": "CN[C@H](CC(C)C)C(=O)N[C@H]1C(=O)N[C@@H](CC(N)=O)C(=O)N[C@H]2CN[C@H]3C(=O)N[C@H](C(=O)N[C@H](C(=O)O)c4cc(O)cc(O)c4-c4cc3ccc4O)[C@H](O)c3ccc(c(Cl)c3)Oc3cc2cc(c3O)Oc2ccc(cc2Cl)[C@H]1O", "note": "[Compound 5, [ψ[CH2NH]Tpg^4]vancomycin aglycon]", "values": [{"measurement": "potency weaker than vancomycin and its aglycon against sensitive E. faecalis", "setting": "[1]", "result": "roughly 30 fold"}, {"measurement": "MIC", "setting": "[1]; VanA E. faecalis BM4166", "result": 31, "unit": "µg/mL"}, {"measurement": "potency relative to vancomycin or its aglycon (more potent)", "setting": "[1]; VanA E. faecalis BM4166", "result": "roughly 40 fold"}, {"measurement": "increase in binding affinity for D-Ala-D-Ala, 5 versus 41", "setting": "[2]; 5 versus carbamate 41", "result": 3, "unit": "fold"}, {"measurement": "Ka, affinity for D-Ala-D-Ala (Ac2-L-Lys-D-Ala-D-Ala, 2)", "setting": "[2]", "result": 4800, "unit": "M⁻¹"}, {"measurement": "reduction in affinity for D-Ala-D-Ala relative to the vancomycin aglycon", "setting": "[2]; relative to vancomycin aglycon", "result": "37 fold and 35 fold"}, {"measurement": "increase in binding affinity for D-Ala-D-Lac, 5 versus 41", "setting": "[3]; 5 versus carbamate 41", "result": 1.2, "unit": "fold"}, {"measurement": "Ka, affinity for D-Ala-D-Lac (Ac2-L-Lys-D-Ala-D-Lac, 4)", "setting": "[3]", "result": 5200, "unit": "M⁻¹"}, {"measurement": "increase in affinity for D-Ala-D-Lac relative to the vancomycin aglycon", "setting": "[3]; relative to vancomycin aglycon", "result": "43 fold and 40 fold"}]}
{"smiles": "CN[C@H](CC(C)C)C(=O)N[C@H]1C(=O)N[C@@H](CC#N)C(=O)N[C@H]2CN(C(=O)OC)[C@H]3C(=O)N[C@H](C(=O)N[C@H](COCOCCOC)c4cc(OC)cc(OC)c4-c4cc3ccc4OC)[C@H](O)c3ccc(c(Cl)c3)Oc3cc2cc(c3OC)Oc2ccc(cc2Cl)[C@H]1O", "note": "[Compound 41]", "values": [{"measurement": "potency weaker than vancomycin and its aglycon against sensitive E. faecalis", "setting": "[1]", "result": "roughly 30 fold"}, {"measurement": "MIC", "setting": "[1]; VanA E. faecalis BM4166", "result": 31, "unit": "µg/mL"}, {"measurement": "potency relative to vancomycin or its aglycon (more potent)", "setting": "[1]; VanA E. faecalis BM4166", "result": "roughly 40 fold"}, {"measurement": "Ka, affinity for D-Ala-D-Ala (Ac2-L-Lys-D-Ala-D-Ala, 2)", "setting": "[2]", "result": 1600, "unit": "M⁻¹"}, {"measurement": "Ka, affinity for D-Ala-D-Lac (Ac2-L-Lys-D-Ala-D-Lac, 4)", "setting": "[3]", "result": 4100, "unit": "M⁻¹"}]}
{"smiles": "CN[C@H](CC(C)C)C(=O)N[C@H]1C(=O)N[C@@H](CC(N)=O)C(=O)N[C@H]2C(=O)N[C@H]3C(=O)N[C@H](C(=O)N[C@H](C(=O)O)c4cc(O)cc(O)c4-c4cc3ccc4O)[C@H](O)c3ccc(c(Cl)c3)Oc3cc2cc(c3O)Oc2ccc(cc2Cl)[C@H]1O", "note": "[vancomycin aglycon, reference compound]", "values": [{"measurement": "MIC", "setting": "[1]; VanA E. faecalis BM4166", "result": 640, "unit": "µg/mL"}, {"measurement": "Ka, affinity for D-Ala-D-Ala (Ac2-L-Lys-D-Ala-D-Ala, 2)", "setting": "[2]", "result": 170000, "unit": "M⁻¹"}, {"measurement": "Ka, affinity for D-Ala-D-Lac (Ac2-L-Lys-D-Ala-D-Lac, 4)", "setting": "[3]", "result": 120, "unit": "M⁻¹"}]}
{"smiles": "CN[C@H](CC(C)C)C(=O)N[C@H]1C(=O)N[C@@H](CC(N)=O)C(=O)N[C@H]2C(=O)N[C@H]3C(=O)N[C@H](C(=O)N[C@H](C(=O)O)c4cc(O)cc(O)c4-c4cc3ccc4O)[C@H](O)c3ccc(c(Cl)c3)Oc3cc2cc(c3O[C@@H]2O[C@H](CO)[C@@H](O)[C@H](O)[C@H]2O[C@H]2C[C@](C)(N)[C@H](O)[C@H](C)O2)Oc2ccc(cc2Cl)[C@H]1O", "note": "[vancomycin]", "values": [{"measurement": "MIC", "setting": "sensitive E. faecalis", "result": "1 to 2.5", "unit": "µg/mL"}, {"measurement": "drop in antimicrobial activity with D-Ala-D-Lac resistant bacteria", "setting": "[4]", "result": 1000, "unit": "fold"}, {"measurement": "MIC", "setting": "[1]; Enterococcus faecalis", "result": 2000, "unit": "µg/mL"}, {"measurement": "reduction of binding to D-Ala-D-Lac ligand versus D-Ala-D-Ala", "setting": "[5]; literature", "result": 1000, "unit": "fold"}, {"measurement": "destabilizing lone pair/lone pair interaction with ester oxygen of 4", "setting": "[5]; share of lost binding energy", "result": 2.6, "unit": "kcal/mol"}, {"measurement": "reduced binding affinity of 4", "setting": "[5]; versus 2, total loss", "result": 4.1, "unit": "kcal/mol"}, {"measurement": "affinity for 3 less than that of 2", "setting": "[6]; relative to Ac2-L-Lys-D-Ala-D-Ala (2)", "result": "approximately 10 fold"}, {"measurement": "affinity for 3 greater than that of 4", "setting": "[6]; relative to Ac2-L-Lys-D-Ala-D-Lac (4)", "result": 100, "unit": "fold"}]}
